Species on record: Rattus norvegicus
Test: DrugMatrix - Regimen: Daily Repeat
Format: toxicity, organism-based, Sprague-Dawley
Design: regimen Daily Repeat, gender Male, age 6-8 weeks
Conditions: in vivo, po, route oral GAVAGE, vehicle 100 % WATER; for ABSOLUTE BASOPHIL / ABSOLUTE EOSINOPHIL / ABSOLUTE LYMPHOCYTE / ABSOLUTE MONOCYTE / ABSOLUTE SEGMENTED NEUTROPHIL / BASOPHIL / EOSINOPHIL / ERYTHROCYTE COUNT / HEMATOCRIT / HEMOGLOBIN / LEUKOCYTE COUNT / LYMPHOCYTE / MEAN CORPUSCULAR HEMOGLOBIN / MEAN CORPUSCULAR HEMOGLOBIN CONCENTRATION / MEAN CORPUSCULAR VOLUME / MONOCYTE / NEUTROPHIL / NUCLEATED RED BLOOD CELLS / PLATELET COUNT: tissue Blood; for ALANINE AMINOTRANSFERASE / ALBUMIN / ALKALINE PHOSPHATASE / ASPARTATE AMINOTRANSFERASE / BLOOD UREA NITROGEN / CARBON DIOXIDE / CHLORIDE / CHOLESTEROL / CREATINE PHOSPHOKINASE / CREATININE / GLUCOSE / LACTATE DEHYDROGENASE / LIPASE / PHOSPHORUS / POTASSIUM / SODIUM / TOTAL BILIRUBIN / TOTAL PROTEIN / URIC ACID: tissue Plasma
[1] = 0 mg/kg, 72 h, dose level Control, time 3 day
[2] = 0 mg/kg, 120 h, dose level Control, time 5 day
[3] = 11 mg/kg, 72 h, dose level Low, time 3 day

SMILES: CN(C)C(=O)Oc1cccc([N+](C)(C)C)c1.[Br-] [NEOSTIGMINE BROMIDE]
- ABSOLUTE BASOPHIL [1]: 0 CELLS/uL
- ABSOLUTE EOSINOPHIL [1]: 32.5 CELLS/uL
- ABSOLUTE LYMPHOCYTE [1]: 9305.83 CELLS/uL
- ABSOLUTE MONOCYTE [1]: 43.83 CELLS/uL
- ABSOLUTE SEGMENTED NEUTROPHIL [1]: 817.83 CELLS/uL
- BASOPHIL [1]: 0%
- EOSINOPHIL [1]: 0.33%
- ERYTHROCYTE COUNT [1]: 5.38 x10E6/uL
- HEMATOCRIT [1]: 33.63%
- HEMOGLOBIN [1]: 13.17 G/DL
- LEUKOCYTE COUNT [1]: 10.2 x10E3/uL
- LYMPHOCYTE [1]: 91.17%
- MEAN CORPUSCULAR HEMOGLOBIN [1]: 24.5 pg
- MEAN CORPUSCULAR HEMOGLOBIN CONCENTRATION [1]: 39.13 G/DL
- MEAN CORPUSCULAR VOLUME [1]: 62.53 fL
- MONOCYTE [1]: 0.5%
- NEUTROPHIL [1]: 8%
- NUCLEATED RED BLOOD CELLS [1]: 0.17 /100WBC
- PLATELET COUNT [1]: 858 x10E3/uL
- ALANINE AMINOTRANSFERASE [1]: 55.67 u/L
- ALBUMIN [1]: 4.07 G/DL
- ALKALINE PHOSPHATASE [1]: 337 u/L
- ASPARTATE AMINOTRANSFERASE [1]: 84 u/L
- BLOOD UREA NITROGEN [1]: 13.17 mg/dL
- CARBON DIOXIDE [1]: 34.17 mmol/L
- CHLORIDE [1]: 99.33 MEQ/L
- CHOLESTEROL [1]: 78.83 mg/dL
- CREATINE PHOSPHOKINASE [1]: 576.83 u/L
- CREATININE [1]: 0.17 mg/dL
- GLUCOSE [1]: 152.67 mg/dL
- LACTATE DEHYDROGENASE [1]: 147.83 u/L
- LIPASE [1]: 9.5 u/L
- PHOSPHORUS [1]: 10.78 mg/dL
- POTASSIUM [1]: 6.34 MEQ/L
- SODIUM [1]: 144.12 MEQ/L
- TOTAL BILIRUBIN [1]: 0.18 mg/dL
- TOTAL PROTEIN [1]: 6.08 G/DL
- URIC ACID [1]: 0.65 mg/dL
- ABSOLUTE BASOPHIL [2]: 0 CELLS/uL
- ABSOLUTE EOSINOPHIL [2]: 31.17 CELLS/uL
- ABSOLUTE LYMPHOCYTE [2]: 7918.33 CELLS/uL
- ABSOLUTE MONOCYTE [2]: 58.33 CELLS/uL
- ABSOLUTE SEGMENTED NEUTROPHIL [2]: 725.5 CELLS/uL
- BASOPHIL [2]: 0%
- EOSINOPHIL [2]: 0.33%
- ERYTHROCYTE COUNT [2]: 5.32 x10E6/uL
- HEMATOCRIT [2]: 33.53%
- HEMOGLOBIN [2]: 13.17 G/DL
- LEUKOCYTE COUNT [2]: 8.73 x10E3/uL
- LYMPHOCYTE [2]: 90.33%
- MEAN CORPUSCULAR HEMOGLOBIN [2]: 24.82 pg
- MEAN CORPUSCULAR HEMOGLOBIN CONCENTRATION [2]: 39.33 G/DL
- MEAN CORPUSCULAR VOLUME [2]: 63.12 fL
- MONOCYTE [2]: 0.67%
- NEUTROPHIL [2]: 8.67%
- NUCLEATED RED BLOOD CELLS [2]: 0 /100WBC
- PLATELET COUNT [2]: 1144.83 x10E3/uL
- ALANINE AMINOTRANSFERASE [2]: 60.5 u/L
- ALBUMIN [2]: 3.97 G/DL
- ALKALINE PHOSPHATASE [2]: 343.17 u/L
- ASPARTATE AMINOTRANSFERASE [2]: 80.83 u/L
- BLOOD UREA NITROGEN [2]: 15 mg/dL
- CARBON DIOXIDE [2]: 31 mmol/L
- CHLORIDE [2]: 99.75 MEQ/L
- CHOLESTEROL [2]: 71.5 mg/dL
- CREATINE PHOSPHOKINASE [2]: 237.17 u/L
- CREATININE [2]: 0.17 mg/dL
- GLUCOSE [2]: 137 mg/dL
- LACTATE DEHYDROGENASE [2]: 146.17 u/L
- LIPASE [2]: 11.5 u/L
- PHOSPHORUS [2]: 10.13 mg/dL
- POTASSIUM [2]: 6 MEQ/L
- SODIUM [2]: 145 MEQ/L
- TOTAL BILIRUBIN [2]: 0.13 mg/dL
- TOTAL PROTEIN [2]: 5.82 G/DL
- URIC ACID [2]: 0.62 mg/dL
- ABSOLUTE BASOPHIL [3]: 0 CELLS/uL
- ABSOLUTE EOSINOPHIL [3]: 0 CELLS/uL
- ABSOLUTE LYMPHOCYTE [3]: 8155 CELLS/uL
- ABSOLUTE MONOCYTE [3]: 60.33 CELLS/uL
- ABSOLUTE SEGMENTED NEUTROPHIL [3]: 851.33 CELLS/uL
- BASOPHIL [3]: 0%
- EOSINOPHIL [3]: 0%
- ERYTHROCYTE COUNT [3]: 5.22 x10E6/uL
- HEMATOCRIT [3]: 32.5%
- HEMOGLOBIN [3]: 12.8 G/DL
- LEUKOCYTE COUNT [3]: 9.07 x10E3/uL
- LYMPHOCYTE [3]: 90%
- MEAN CORPUSCULAR HEMOGLOBIN [3]: 24.53 pg
- MEAN CORPUSCULAR HEMOGLOBIN CONCENTRATION [3]: 39.4 G/DL
- MEAN CORPUSCULAR VOLUME [3]: 62.3 fL
- MONOCYTE [3]: 0.67%
- NEUTROPHIL [3]: 9.33%
- NUCLEATED RED BLOOD CELLS [3]: 0 /100WBC
- PLATELET COUNT [3]: 925.67 x10E3/uL
- ALANINE AMINOTRANSFERASE [3]: 55.67 u/L
- ALBUMIN [3]: 3.93 G/DL
- ALKALINE PHOSPHATASE [3]: 332.67 u/L
- ASPARTATE AMINOTRANSFERASE [3]: 81.67 u/L
- BLOOD UREA NITROGEN [3]: 13.67 mg/dL
- CARBON DIOXIDE [3]: 34.33 mmol/L
- CHLORIDE [3]: 98.67 MEQ/L
- CHOLESTEROL [3]: 82.67 mg/dL
- CREATINE PHOSPHOKINASE [3]: 214.67 u/L
- CREATININE [3]: 0.14 mg/dL
- GLUCOSE [3]: 150.67 mg/dL
- LACTATE DEHYDROGENASE [3]: 142.33 u/L
- LIPASE [3]: 9.33 u/L
- PHOSPHORUS [3]: 10.87 mg/dL
- POTASSIUM [3]: 5.64 MEQ/L
- SODIUM [3]: 144.73 MEQ/L
- TOTAL BILIRUBIN [3]: 0.17 mg/dL
- TOTAL PROTEIN [3]: 5.97 G/DL
- URIC ACID [3]: 0.47 mg/dL

Reference: ChEMBL document CHEMBL3885881, “DrugMatrix”
